{
  "source": "ChEMBL document CHEMBL5046266",
  "about": "“Synthesis and Evaluation of Structurally Diverse C-2-Substituted Thienopyrimidine-Based Inhibitors of the Human Geranylgeranyl Pyrophosphate Synthase” (J Med Chem, 2022)",
  "key": {"[1]": {"molecular_target": "T1, Geranylgeranyl pyrophosphate synthase (Homo sapiens, UniProt O95749)", "T1 sequence (O95749 whole entry)": "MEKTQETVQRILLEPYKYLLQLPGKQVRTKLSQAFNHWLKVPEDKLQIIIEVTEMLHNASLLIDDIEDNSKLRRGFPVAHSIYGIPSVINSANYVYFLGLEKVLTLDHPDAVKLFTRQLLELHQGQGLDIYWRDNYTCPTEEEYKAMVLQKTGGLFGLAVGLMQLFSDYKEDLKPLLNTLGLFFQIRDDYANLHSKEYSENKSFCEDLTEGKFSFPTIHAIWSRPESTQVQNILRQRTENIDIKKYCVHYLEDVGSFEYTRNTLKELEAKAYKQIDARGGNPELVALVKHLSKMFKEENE"}, "[2]": {"test_system": "RPMI-8226", "assay": "cells", "details": "Homo sapiens, RPMI-8226, 72 h"}, "[3]": {"molecular_target": "T2, Farnesyl pyrophosphate synthase (Homo sapiens) (UniProt P14324)", "T2 sequence (whole entry)": "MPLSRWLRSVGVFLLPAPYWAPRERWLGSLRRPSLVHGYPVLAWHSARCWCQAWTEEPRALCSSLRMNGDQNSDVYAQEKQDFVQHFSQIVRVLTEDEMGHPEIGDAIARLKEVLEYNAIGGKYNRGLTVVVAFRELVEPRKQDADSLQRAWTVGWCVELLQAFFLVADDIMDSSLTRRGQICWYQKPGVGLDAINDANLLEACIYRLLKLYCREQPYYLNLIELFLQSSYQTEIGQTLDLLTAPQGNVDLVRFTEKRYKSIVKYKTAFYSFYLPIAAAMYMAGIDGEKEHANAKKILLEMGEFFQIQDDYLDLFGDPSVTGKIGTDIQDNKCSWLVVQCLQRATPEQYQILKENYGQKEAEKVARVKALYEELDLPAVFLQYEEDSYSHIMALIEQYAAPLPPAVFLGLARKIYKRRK", "assay": "Inhibition of human FPPS expressed in Escherichia coli BL21 (DE3) at 1 uM preincubated for 10 mins in presence compound relative to control"}, "[4]": {"molecular_target": "T3, Farnesyl pyrophosphate synthase (Homo sapiens, UniProt P14324)", "T3 sequence (P14324 whole entry)": "T2 sequence (whole entry)"}, "[5]": {"assay": "in vitro", "details": "human, bone marrow mononuclear cells"}},
  "data": [
    {"smiles": "COc1ccc(C(=O)Nc2cccc(-c3nc(NC(P(=O)(O)O)P(=O)(O)O)c4ccsc4n3)c2)cc1F", "values": [
      {"measurement": "IC50", "setting": "[1]", "value": 29, "unit": "nM"},
      {"measurement": "EC50", "setting": "[2]", "value": 460, "unit": "nM"},
      {"measurement": "inhibition", "setting": "[3]", "value": 60, "unit": "%"}
    ]},
    {"smiles": "COc1ccc([C@H](OC(C)C)C(=O)Nc2cccc(-c3nc(NC(P(=O)(O)O)P(=O)(O)O)c4ccsc4n3)c2)cc1F", "values": [
      {"measurement": "IC50", "setting": "[1]", "value": 17, "unit": "nM"},
      {"measurement": "IC50", "setting": "[4]", "value": 460, "unit": "nM"},
      {"measurement": "EC50", "setting": "[2]", "value": 880, "unit": "nM"}
    ]},
    {"smiles": "O=C(Nc1ccc(F)cc1)Nc1cccc(-c2nc(NC(P(=O)(O)O)P(=O)(O)O)c3ccsc3n2)c1", "values": [
      {"measurement": "IC50", "setting": "[1]", "value": 41, "unit": "nM"},
      {"measurement": "EC50", "setting": "[2]", "value": 4100, "unit": "nM"},
      {"measurement": "inhibition", "setting": "[3]", "value": 90, "unit": "%"}
    ]},
    {"smiles": "COc1ccc(NS(=O)(=O)c2cccc(-c3nc(NC(P(=O)(O)O)P(=O)(O)O)c4ccsc4n3)c2)cc1F", "values": [
      {"measurement": "IC50", "setting": "[1]", "value": 23, "unit": "nM"},
      {"measurement": "EC50", "setting": "[2]", "value": 5000, "unit": "nM"},
      {"measurement": "inhibition", "setting": "[3]", "value": 25, "unit": "%"}
    ]},
    {"smiles": "Cc1ccc(S(=O)(=O)Nc2cccc(-c3nc(NC(P(=O)(O)O)P(=O)(O)O)c4ccsc4n3)c2)cc1F", "values": [
      {"measurement": "IC50", "setting": "[1]", "value": 23, "unit": "nM"},
      {"measurement": "EC50", "setting": "[2]", "value": 7800, "unit": "nM"},
      {"measurement": "inhibition", "setting": "[3]", "value": 30, "unit": "%"}
    ]},
    {"smiles": "CC(C)O[C@@H](C(=O)Nc1cccc(-c2nc(NC(P(=O)(O)O)P(=O)(O)O)c3ccsc3n2)c1)c1ccccc1", "values": [
      {"measurement": "IC50", "setting": "[1]", "value": 23, "unit": "nM"},
      {"measurement": "EC50", "setting": "[2]", "value": 910, "unit": "nM"}
    ]},
    {"smiles": "COc1ccc(C(=O)Nc2cccc(-c3nc(NC(P(=O)(O)O)P(=O)(O)O)c4ccsc4n3)c2)cc1Br", "values": [
      {"measurement": "IC50", "setting": "[1]", "value": 36, "unit": "nM"},
      {"measurement": "EC50", "setting": "[2]", "value": "> 500", "unit": "nM"},
      {"measurement": "inhibition", "setting": "[3]", "value": 40, "unit": "%"}
    ]},
    {"smiles": "Cc1ccc(NC(=O)c2cccc(-c3nc(NC(P(=O)(O)O)P(=O)(O)O)c4ccsc4n3)c2)cc1F", "values": [
      {"measurement": "IC50", "setting": "[1]", "value": 31, "unit": "nM"},
      {"measurement": "EC50", "setting": "[2]", "value": 130, "unit": "nM"},
      {"measurement": "inhibition", "setting": "[3]", "value": 28, "unit": "%"}
    ]},
    {"smiles": "O=C(Nc1cccc(-c2nc(NC(P(=O)(O)O)P(=O)(O)O)c3ccsc3n2)c1)c1ccc(C(F)(F)F)cn1", "values": [
      {"measurement": "IC50", "setting": "[1]", "value": 52, "unit": "nM"},
      {"measurement": "EC50", "setting": "[2]", "value": 21300, "unit": "nM"},
      {"measurement": "inhibition", "setting": "[3]", "value": 60, "unit": "%"}
    ]},
    {"smiles": "CO[C@@H](C(=O)Nc1cccc(-c2nc(NC(P(=O)(O)O)P(=O)(O)O)c3ccsc3n2)c1)c1ccccc1", "values": [
      {"measurement": "IC50", "setting": "[1]", "value": 39, "unit": "nM"},
      {"measurement": "EC50", "setting": "[2]", "value": 920, "unit": "nM"},
      {"measurement": "inhibition", "setting": "[3]", "value": 48, "unit": "%"}
    ]},
    {"smiles": "CO[C@H](C(=O)Nc1cccc(-c2nc(NC(P(=O)(O)O)P(=O)(O)O)c3ccsc3n2)c1)c1ccccc1", "values": [
      {"measurement": "IC50", "setting": "[1]", "value": 38, "unit": "nM"},
      {"measurement": "EC50", "setting": "[2]", "value": 390, "unit": "nM"},
      {"measurement": "inhibition", "setting": "[3]", "value": 55, "unit": "%"}
    ]},
    {"smiles": "CC(C)C[C@H](NC(=O)[C@H](Cc1ccccc1)NC(=O)c1cnccn1)B(O)O", "note": "[BORTEZOMIB]", "values": [
      {"measurement": "viability at 72 h, 0.05 µM", "setting": "[5]", "value": 40.1, "unit": "%"}
    ]},
    {"smiles": "O=C(Nc1ccccc1)c1cccc(-c2nc(NC(P(=O)(O)O)P(=O)(O)O)c3ccsc3n2)c1", "values": [
      {"measurement": "IC50", "setting": "[1]", "value": 41, "unit": "nM"}
    ]},
    {"smiles": "O=C(Nc1cccc(-c2nc(NC(P(=O)(O)O)P(=O)(O)O)c3ccsc3n2)c1)c1ccc(F)cc1", "values": [
      {"measurement": "IC50", "setting": "[1]", "value": 25, "unit": "nM"},
      {"measurement": "inhibition", "setting": "[3]", "value": 30, "unit": "%"}
    ]},
    {"smiles": "Cc1ccc(NC(=O)c2cccc(-c3nc(NC(P(=O)(O)O)P(=O)(O)O)c4ccsc4n3)c2)cc1Br", "values": [
      {"measurement": "IC50", "setting": "[1]", "value": 15, "unit": "nM"},
      {"measurement": "EC50", "setting": "[2]", "value": 161, "unit": "nM"},
      {"measurement": "inhibition", "setting": "[3]", "value": 12, "unit": "%"}
    ]},
    {"smiles": "O=C(Nc1cccc(-c2nc(NC(P(=O)(O)O)P(=O)(O)O)c3ccsc3n2)c1)c1ccccc1", "values": [
      {"measurement": "IC50", "setting": "[1]", "value": 19, "unit": "nM"},
      {"measurement": "EC50", "setting": "[2]", "value": "> 500", "unit": "nM"},
      {"measurement": "inhibition", "setting": "[3]", "value": 40, "unit": "%"}
    ]},
    {"smiles": "O=C(Cc1ccccc1)Nc1cccc(-c2nc(NC(P(=O)(O)O)P(=O)(O)O)c3ccsc3n2)c1", "values": [
      {"measurement": "IC50", "setting": "[1]", "value": 23, "unit": "nM"},
      {"measurement": "EC50", "setting": "[2]", "value": 740, "unit": "nM"},
      {"measurement": "inhibition", "setting": "[3]", "value": 55, "unit": "%"}
    ]},
    {"smiles": "CC(C)O[C@H](C(=O)Nc1cccc(-c2nc(NC(P(=O)(O)O)P(=O)(O)O)c3ccsc3n2)c1)c1ccccc1", "values": [
      {"measurement": "IC50", "setting": "[1]", "value": 21, "unit": "nM"},
      {"measurement": "EC50", "setting": "[2]", "value": 135, "unit": "nM"},
      {"measurement": "inhibition", "setting": "[3]", "value": 35, "unit": "%"}
    ]},
    {"smiles": "O=C(Cc1cccnc1)Nc1cccc(-c2nc(NC(P(=O)(O)O)P(=O)(O)O)c3ccsc3n2)c1", "values": [
      {"measurement": "IC50", "setting": "[1]", "value": 71, "unit": "nM"},
      {"measurement": "EC50", "setting": "[2]", "value": 1200, "unit": "nM"},
      {"measurement": "inhibition", "setting": "[3]", "value": 60, "unit": "%"}
    ]},
    {"smiles": "O=C(Nc1cccc(-c2nc(NC(P(=O)(O)O)P(=O)(O)O)c3ccsc3n2)c1)c1ccc(C(F)(F)F)cc1", "values": [
      {"measurement": "IC50", "setting": "[1]", "value": 18, "unit": "nM"},
      {"measurement": "EC50", "setting": "[2]", "value": 710, "unit": "nM"},
      {"measurement": "inhibition", "setting": "[3]", "value": 40, "unit": "%"}
    ]},
    {"smiles": "COc1ccc(NC(=O)Nc2cccc(-c3nc(NC(P(=O)(O)O)P(=O)(O)O)c4ccsc4n3)c2)cc1F", "values": [
      {"measurement": "IC50", "setting": "[1]", "value": 34, "unit": "nM"},
      {"measurement": "EC50", "setting": "[2]", "value": 1300, "unit": "nM"}
    ]},
    {"smiles": "COc1ccc(S(=O)(=O)Nc2cccc(-c3nc(NC(P(=O)(O)O)P(=O)(O)O)c4ccsc4n3)c2)cc1F", "values": [
      {"measurement": "IC50", "setting": "[1]", "value": 24, "unit": "nM"},
      {"measurement": "EC50", "setting": "[2]", "value": 4700, "unit": "nM"},
      {"measurement": "inhibition", "setting": "[3]", "value": 40, "unit": "%"}
    ]},
    {"smiles": "COc1ccc([C@@H](OC(C)C)C(=O)Nc2cccc(-c3nc(NC(P(=O)(O)O)P(=O)(O)O)c4ccsc4n3)c2)cc1F", "values": [
      {"measurement": "IC50", "setting": "[1]", "value": 20, "unit": "nM"},
      {"measurement": "IC50", "setting": "[4]", "value": 730, "unit": "nM"},
      {"measurement": "EC50", "setting": "[2]", "value": "> 5000", "unit": "nM"}
    ]},
    {"smiles": "CC(C)C[C@H](NC(=O)[C@H](CCc1ccccc1)NC(=O)CN1CCOCC1)C(=O)N[C@@H](Cc1ccccc1)C(=O)N[C@@H](CC(C)C)C(=O)[C@@]1(C)CO1", "note": "[CARFILZOMIB]", "values": [
      {"measurement": "viability at 72 h, 0.05 µM", "setting": "[5]", "value": 43.6, "unit": "%"}
    ]},
    {"smiles": "O=P(O)(O)C(Nc1nc(-c2ccccc2)nc2sccc12)P(=O)(O)O", "values": [
      {"measurement": "IC50", "setting": "[1]", "value": 37, "unit": "nM"},
      {"measurement": "EC50", "setting": "[2]", "value": "> 10000", "unit": "nM"}
    ]},
    {"smiles": "Cc1ccc(C(=O)Nc2cccc(-c3nc(NC(P(=O)(O)O)P(=O)(O)O)c4ccsc4n3)c2)cc1F", "values": [
      {"measurement": "IC50", "setting": "[1]", "value": 21, "unit": "nM"},
      {"measurement": "EC50", "setting": "[2]", "value": 290, "unit": "nM"},
      {"measurement": "inhibition", "setting": "[3]", "value": 35, "unit": "%"}
    ]}
  ]
}
